Measurements: patent publication US8093231B2, “Sulfonylethyl phosphorodiamidates” (Telik, Inc., priority 2004, dated 2012)

What was measured:
Assay type in all cases: cell-based, human
[1] = test system: LNCap (prostate carcinoma); assay: Cytotoxicity/growth inhibition assay, LNCap; conditions: LNCap cells, 4 days culture, CellTiter-Glo, 0.1-200 μM tested; read-out: IC50 (LNCap)
Excerpt: (§1) The human cancer cell lines DLD-1 (colorectal adenocarcinoma), LNCap (prostate carcinoma), and OVCAR-3 (ovarian carcinoma) were obtained from the American Type Culture Collection, Manassas, Va., U.S.A., and HL-60 (promyeloid myelocytic leukemia), MX-1 (breast carcinoma), P388, and P388ADR from the National Cancer Institute, Bethesda, Md., U.S.A. Carboplatin, doxorubicin, and melphalan were obtained from Sigma-Aldrich Chemical Company, St. Louis, Mo., U.S.A. The CellTiter-Glo assay kit was obtained from Promega Corporation, Madison, Wis., U.S.A., and the Cellular DNA Cytometric Analysis Reagent Kit from Roche Diagnostics Corporation, Indianapolis, Ind., U.S.A. Lambda DNA was obtained from New England Biolabs, Beverly, Mass., U.S.A., and SYBR-Gold from Molecular Probes, Inc., Eugene, Oreg., U.S.A. The DNeasy Tissue Kit was obtained from Qiagen Inc., Valencia, Calif., U.S.A., and AmpliTaq Gold DNA polymerase and PCR reagents from Applied Biosystems, Foster City, Calif., U.S.A. All products were used in accordance with manufacturer's directions. All assays were conducted in triplicate wells, with dimethyl sulfoxide (DMSO) solvent control. The extent of cell growth was expressed as a percentage of the signal from the solvent control wells.
(§2) Log-phase cells were trypsinized, collected by centrifugation, and resuspended in a small volume of fresh medium, and the density of viable cells was determined following Trypan Blue staining. Cells were diluted in fresh media (3×10^3 cells/mL for MX-1, 3×10^3 cells/mL for DLD-1, and 6×10^3 cells/mL for LNCap cells), the test compounds (concentrations between 0.1 and 200 μM, dissolved in DMSO, 50 μL) added immediately after dilution to achieve a final DMSO concentration of 0.5%, then the suspensions added at 150 μL/well to 96-well plates, and incubated for several hours to allow attachment in the case of adherent cells. The cells were cultured for approximately three doubling times (3 days for MX-1 and 4 days for DLD-1 and LNCap). The cells were then collected by centrifugation, and 100 μL of the culture supernatant was replaced by the CellTiter-Glo reagent. After incubation for 15 minutes at room temperature, and the plate was read with a luminometer.

MX-1 (breast carcinoma) = assay: Cytotoxicity/growth inhibition assay, MX-1; conditions: MX-1 cells, 3 days culture, CellTiter-Glo, 0.1-200 μM tested; read-out: IC50 (MX-1)
Excerpt: as §1, §2

[2] = test system: DLD-1 (colorectal adenocarcinoma); assay: Cytotoxicity/growth inhibition assay, DLD-1; conditions: DLD-1 cells, 4 days culture, CellTiter-Glo, 0.1-200 μM tested; read-out: IC50 (DLD-1)
Excerpt: as §1, §2

| SMILES | IC50 [1] | IC50 (MX-1 (breast carcinoma)) | IC50 [2] |
| --- | --- | --- | --- |
| CC(C)(C(N)C(=O)O)S(=O)(=O)CCOP(=O)(N(CCCl)CCCl)N(CCCl)CCCl (stereo not drawn) [Compound 75A] | 185 µM | 33.1 µM | 7.6 µM |
| CC(C)(C(N)C(=O)O)S(=O)(=O)CCOP(=O)(N(CCCl)CCCl)N(CCCl)CCCl (stereo not drawn) [Compound 76A] | 99.7 µM | 23.2 µM | 6.6 µM |
| N[C@@H](CCS(=O)(=O)CCOP(=O)(N(CCCl)CCCl)N(CCCl)CCCl)C(=O)O [Compound 77A] | 140 µM | 21.3 µM | 8 µM |
| NC(=O)[C@@H](N)CS(=O)(=O)CCOP(=O)(N(CCCl)CCCl)N(CCCl)CCCl [Compound 78A] | ≥ 200 µM | 18.8 µM | 6.3 µM |
| COC(=O)[C@H](CS(=O)(=O)CCOP(=O)(N(CCCl)CCCl)N(CCCl)CCCl)NS(=O)(=O)c1ccccc1 [Compound 80A] | 80.2 µM | 27.1 µM | 10.7 µM |
| COC(=O)[C@H](CS(=O)(=O)CCOP(=O)(N(CCCl)CCCl)N(CCCl)CCCl)NS(=O)(=O)c1ccc(Cl)cc1 [Compound 81A] | 86.6 µM | 33.3 µM | 6.9 µM |
| N[C@@H](CS(=O)(=O)CCOP(=O)(N(CCCl)CCCl)N(CCCl)CCCl)C(=O)OCc1ccccc1 [Compound 82A] | 59.8 µM | 27.9 µM | 7.7 µM |
| CC(C)(C)OC(=O)N[C@@H](CS(=O)(=O)CCOP(=O)(N(CCCl)CCCl)N(CCCl)CCCl)C(=O)N1CCOCC1 [Compound 83A] | 27.8 µM | 12.9 µM | 6.7 µM |
| CC(C)NC(=O)[C@H](CS(=O)(=O)CCOP(=O)(N(CCCl)CCCl)N(CCCl)CCCl)NC(=O)OC(C)(C)C [Compound 84A] | 29.6 µM | 10.6 µM | 6 µM |
| CC(C)(C)OC(=O)N[C@@H](CS(=O)(=O)CCOP(=O)(N(CCCl)CCCl)N(CCCl)CCCl)C(=O)N1CCN(C(=O)c2ccco2)CC1 [Compound 85A] | 41.1 µM | 11.8 µM | 8.8 µM |
| CC(C)(C)OC(=O)N[C@@H](CS(=O)(=O)CCOP(=O)(N(CCCl)CCCl)N(CCCl)CCCl)C(=O)NCCO [Compound 86A] | 73.5 µM | 25.1 µM | 10.3 µM |
| N[C@@H](CS(=O)(=O)CCOP(=O)(N(CCCl)CCCl)N(CCCl)CCCl)C(=O)N1CCOCC1 [Compound 87A] | 136 µM | 19.5 µM | 9.7 µM |
| N[C@@H](CS(=O)(=O)CCOP(=O)(N(CCCl)CCCl)N(CCCl)CCCl)C(=O)NCCO [Compound 88A] | 126 µM | 17.9 µM | 9.5 µM |
| CC(C)NC(=O)[C@@H](N)CS(=O)(=O)CCOP(=O)(N(CCCl)CCCl)N(CCCl)CCCl [Compound 89A] | 140 µM | 22.2 µM | 8.5 µM |
| N[C@@H](CS(=O)(=O)CCOP(=O)(N(CCCl)CCCl)N(CCCl)CCCl)C(=O)N1CCN(C(=O)c2ccco2)CC1 [Compound 90A] | ≥ 200 µM | 23.8 µM | 10.4 µM |
| O=C(NCc1ccccc1)[C@H](CS(=O)(=O)CCOP(=O)(N(CCCl)CCCl)N(CCCl)CCCl)NS(=O)(=O)c1ccccc1 [Compound 91A] | 33.3 µM | 10.7 µM | 4.8 µM |
| CC(C)NC(=O)[C@H](CS(=O)(=O)CCOP(=O)(N(CCCl)CCCl)N(CCCl)CCCl)NS(=O)(=O)c1ccccc1 [Compound 92A] | 36.1 µM | 14.7 µM | 7.3 µM |
| O=C(c1ccco1)N1CCN(C(=O)[C@H](CS(=O)(=O)CCOP(=O)(N(CCCl)CCCl)N(CCCl)CCCl)NS(=O)(=O)c2ccccc2)CC1 [Compound 93A] | 59.1 µM | 19.3 µM | 13.2 µM |
| N[C@@H](CS(=O)(=O)CCOP(=O)(N(CCCl)CCCl)N(CCCl)CCCl)C(=O)NCCC(=O)O [Compound 94A] | ≥ 200 µM | 22.8 µM | 37.5 µM |
| CS(=O)(=O)N[C@@H](CS(=O)(=O)CCOP(=O)(N(CCCl)CCCl)N(CCCl)CCCl)C(=O)NCc1ccccc1 [Compound 95A] | 46.6 µM | 21.3 µM | 9.9 µM |
| CS(=O)(=O)N[C@@H](CS(=O)(=O)CCOP(=O)(N(CCCl)CCCl)N(CCCl)CCCl)C(=O)N1CCOCC1 [Compound 96A] | 81 µM | 30.2 µM | 9.6 µM |

| SMILES | IC50 [1] | IC50 (MX-1 (breast carcinoma)) | IC50 [2] |
| --- | --- | --- | --- |
| CC(C)NC(=O)[C@H](CS(=O)(=O)CCOP(=O)(N(CCCl)CCCl)N(CCCl)CCCl)NS(C)(=O)=O [Compound 97A] | 57.8 µM | 26.8 µM | 8.5 µM |
| CS(=O)(=O)N[C@@H](CS(=O)(=O)CCOP(=O)(N(CCCl)CCCl)N(CCCl)CCCl)C(=O)N1CCN(C(=O)c2ccco2)CC1 [Compound 98A] | 144 µM | 27.9 µM | 9.9 µM |
| N#Cc1ccc(S(=O)(=O)N[C@@H](CS(=O)(=O)CCOP(=O)(N(CCCl)CCCl)N(CCCl)CCCl)C(=O)NCc2ccccc2)cc1 [Compound 99A] | 33.5 µM | 16.2 µM | 6.4 µM |
| N#Cc1ccc(S(=O)(=O)N[C@@H](CS(=O)(=O)CCOP(=O)(N(CCCl)CCCl)N(CCCl)CCCl)C(=O)N2CCOCC2)cc1 [Compound 100A] | 61.4 µM | 16.2 µM | 7.4 µM |
| CC(C)NC(=O)[C@H](CS(=O)(=O)CCOP(=O)(N(CCCl)CCCl)N(CCCl)CCCl)NS(=O)(=O)c1ccc(C#N)cc1 [Compound 101A] | 57 µM | 14.8 µM | 7.2 µM |
| N#Cc1ccc(S(=O)(=O)N[C@@H](CS(=O)(=O)CCOP(=O)(N(CCCl)CCCl)N(CCCl)CCCl)C(=O)N2CCN(C(=O)c3ccco3)CC2)cc1 [Compound 102A] | 81.6 µM | 19.9 µM | 9.2 µM |
| O=C(O)[C@H](CS(=O)(=O)CCOP(=O)(N(CCCl)CCCl)N(CCCl)CCCl)NS(=O)(=O)c1ccccc1 [Compound 103A] | 151 µM | 18.2 µM | 14.5 µM |
| CS(=O)(=O)N[C@@H](CS(=O)(=O)CCOP(=O)(N(CCCl)CCCl)N(CCCl)CCCl)C(=O)O [Compound 104A] | ≥ 200 µM | 25.3 µM | 20 µM |
| O=C(O)[C@H](CS(=O)(=O)CCOP(=O)(N(CCCl)CCCl)N(CCCl)CCCl)NS(=O)(=O)c1ccc(Cl)cc1 [Compound 105A] | ≥ 200 µM | 31.6 µM | 23.1 µM |
| O=P(OCCS(=O)(=O)c1ccccc1Cl)(N(CCCl)CCCl)N(CCCl)CCCl [Compound 106A] | 18.3 µM | 4.2 µM | 3.7 µM |
| Cc1ccc(S(=O)(=O)CCOP(=O)(N(CCCl)CCCl)N(CCCl)CCCl)cc1 [Compound 107A] | 18.1 µM | 2.5 µM | 1.6 µM |
| O=P(OCCS(=O)(=O)c1ccc(Cl)cc1)(N(CCCl)CCCl)N(CCCl)CCCl [Compound 108A] | 6.4 µM | 3.3 µM | 2.3 µM |
| O=P(OCCS(=O)(=O)c1ccc(C(F)(F)F)cc1)(N(CCCl)CCCl)N(CCCl)CCCl [Compound 109A] | 7.7 µM | 1.1 µM | 0.6 µM |
| Cc1cccc(S(=O)(=O)CCOP(=O)(N(CCCl)CCCl)N(CCCl)CCCl)c1 [Compound 110A] | 20.5 µM | 2.7 µM | 1.3 µM |
| O=P(OCCS(=O)(=O)c1ccc(F)cc1)(N(CCCl)CCCl)N(CCCl)CCCl [Compound 111A] | 20.1 µM | 1.3 µM | 0.6 µM |
| O=P(OCCS(=O)(=O)c1ccc(Cl)c(Cl)c1)(N(CCCl)CCCl)N(CCCl)CCCl [Compound 112A] | 6.3 µM | 1 µM | 0.8 µM |
| O=P(OCCS(=O)(=O)c1ccc(-c2ccccc2)cc1)(N(CCCl)CCCl)N(CCCl)CCCl [Compound 113A] | 18.4 µM | 10.9 µM | 2.2 µM |
| CC(C)(C)c1ccc(S(=O)(=O)CCOP(=O)(N(CCCl)CCCl)N(CCCl)CCCl)cc1 [Compound 114A] | 8.2 µM | 4.7 µM | 1.9 µM |
| COc1ccc(S(=O)(=O)CCOP(=O)(N(CCCl)CCCl)N(CCCl)CCCl)cc1 [Compound 115A] | 18.5 µM | 5.3 µM | 4.1 µM |
| O=P(OCCS(=O)(=O)c1cccc(C(F)(F)F)c1)(N(CCCl)CCCl)N(CCCl)CCCl [Compound 116A] | 6.6 µM | 3.1 µM | 2.2 µM |
